The source of these data is patent publication US20230090111A1, “CXCL8 INHIBITOR AND PHARMACEUTICAL COMPOSITION THEREOF FOR USE IN THE TREATMENT OF CANCER-RELATED FATIGUE” (Dompe' farmaceutici SpA, priority 2020, published 2023).

“And” between values parts separate entries of the source, which are not always exact repeats. Identical values can stand only once. “Also recorded” adds a separate entry of the source.

In experiment [1] the test system is patients with metastatic triple negative breast cancer (TNBC). Nature of the experiment: Randomized, double-blind, placebo-controlled phase 2 study (FRIDA): fatigue as treatment emergent adverse event (NCI-CTCAE 4.03). Type of experiment: in vivo, human. Here is the method:
The study was conducted with 56 sites actively screening patients in the United States of America, Italy, France, Belgium, Spain, Czech Republic and Poland.
Two sub-groups of patients were studied: newly diagnosed metastatic patients and patients that had relapsed following a prior (neo)adjuvant chemotherapy regimen. Amongst other inclusion criteria, to be able to participate in the study, subjects were to have a Zubrod/ECOG Performance Status of 0 or 1 (0=Fully active; no performance restrictions 1=Strenuous physical activity restricted; fully ambulatory and able to carry out light work).
There was no limit to study treatment duration and patients remained in the study until disease progression, withdrawal of consent or unacceptable toxicity, whichever occurred first.
Investigators reported any adverse events experienced by study patients according to the NCI-CTCAE version 4.03. Toxicity was defined according to the grading scale for each parameter. According to this scale, the presence and intensity of fatigue is defined as follows: • Grade 1: Fatigue relieved by rest • Grade 2: Fatigue not relieved by rest, limiting instrumental ADL • Grade 3: Fatigue not relieved by rest, limiting self care ADL • where instrumental ADL refers to preparing meals, shopping for groceries or clothes, using the telephone, managing money, and the like and self care ADL refer to bathing, dressing and undressing, feeding self, using the toilet, taking medications, but not bedridden.
The distributions of fatigue as a treatment emergent adverse event (TEAE) irrespective of relationship with study treatment were compared among treatment groups using the Chi-squared test (Table 1).

Experiment [2] deals with cancer-related fatigue (CRF). The settings on record: A. Spathis et al., 2014; cited from earlier work.
For experiment [3] the following is noted: oclacitinib alone; cited from earlier work.
Experiment [4] concerns dogs with osteosarcoma metastatic to the lungs. The experiment can be described thus: Prospective pilot study: QoL of dogs given doxorubicin, oclacitinib and ladarixin. Format: in vivo. Further details: mqol gooddavs / mqol_sleeps / mqol_depressed / mqol_eats / mqol_drinks / mqol_moves / mqol_lays / mqol_active / mqol_play / mqol_presence / mqol_enjoyslife: scale not given here. Particulars: for mqol gooddavs / mqol_active / mqol_depressed / mqol_drinks / mqol_eats / mqol_enjoyslife / mqol_lays / mqol_moves / mqol_play / mqol_presence / mqol_sleeps: with doxorubicin+oclacitinib. On the procedure:
A prospective pilot study was conducted to evaluate whether the addition of ladarixin to doxorubicin and oclacitinib mitigates the adverse event profile associated with doxorubicin which includes fatigue, lethargy, anorexia and a general decrease in quality of life (QoL).
A cohort of 5 dogs with osteosarcoma metastatic to the lungs was studied.
In this study, dogs received doxorubicin at […] IV, oclacitinib at 0.4-0.6 mg/kg orally twice per day (label dose) and ladarixin at 15 mg/kg twice per day.
A well validated QoL for dogs with cancer was used (Giuffrida et al., J Am Vet Med Assoc, 252(9): 1073-1083) to assess changes in performance status and quality of life during the course of the study. The QoL values were reported as a numerical value and tracked over each study visit. All owners were required to maintain a diary to chart the administration of medications, note any changes in behaviour, document appetite and energy levels, and identify any other changes in constitutional changes. Owners also recorded a daily performance status (scale from 0 to 5).

Where [5] appears, read: judged by investigators under double-blind conditions, Chi-squared P 0.020.
The mark [6] stands for this setting: paclitaxel plus reparixin (Group 1) or placebo (Group 2), Chi-squared P 0.003.
Where [7] appears, read: D0, one value per dog (Record ID 1-5).
Where [8] appears, read: D7, one value per dog (Record ID 1-5).
Where [9] appears, read: D14, one value per dog (Record ID 1-5).
[10] abbreviates: D21, one value per dog (Record ID 3-5).

For `CC(=O)O[C@H]1C(=O)[C@@]2(C)[C@H]([C@H](OC(=O)c3ccccc3)[C@]3(O)C[C@H](OC(=O)[C@H](O)[C@@H](NC(=O)c4ccccc4)c4ccccc4)C(C)=C1C3(C)C)[C@]1(OC(C)=O)CO[C@@H]1C[C@@H]2O` [paclitaxel], in experiment [1] (in vivo), the “Subjects with severe (Grade 3) treatment-related fatigue, number” value is on record as “two” and the “Subjects with severe (Grade 3) treatment-related fatigue, percent” value was 3.3%. Further, in experiment [1] (setting [5]), the “Fatigue as TEAE at least possibly related to study treatment: No, number of subjects” value is listed as 43; the “Fatigue as TEAE at least possibly related to study treatment: No, percent of subjects” value is 71.7%; the “Fatigue as TEAE at least possibly related to study treatment: Yes, number of subjects” value was 17 subjects; the “Fatigue as TEAE at least possibly related to study treatment: Yes, percent of subjects” value amounted to 28.3%. The “Fatigue as TEAE irrespective of relationship with study treatment: Yes, number of subjects” value in experiment [1] (paclitaxel 80 mg/m2 i.v. plus reparixin 1200 mg t.i.d. (Group 1) or placebo (Group 2), Chi-squared P 0.003) came to 26 subjects. In addition, in experiment [1] (setting [6]), the “Fatigue as TEAE irrespective of relationship with study treatment: No, number of subjects” value was 34; the “Fatigue as TEAE irrespective of relationship with study treatment: No, percent of subjects” value turned out to be 56.7%; the “Fatigue as TEAE irrespective of relationship with study treatment: Yes, percent of subjects” value worked out at 43.3%.

For the compound `NC(=O)C[S+]([O-])C(c1ccccc1)c1ccccc1` (stereo not drawn) [modafimil], the “Benefit over placebo in CRF (in words)” value in experiment [2] is “no benefit over placebo”.

As for `CNS(=O)(=O)C[C@H]1CC[C@H](N(C)c2ncnc3[nH]ccc23)CC1` [oclacitinib], in experiment [3], the “Ability to reduce severity of fatigue associated with chemotherapy (in words)” value is reported as “not able to reduce the severity of fatigue associated with chemotherapy”.

Turning to `CC(C)Cc1ccc([C@@H](C)C(=O)NS(C)(=O)=O)cc1` [reparixin, R-(−)-2-(4-isobutylphenyl)propionyl methansulfonamide], the “Severity of fatigue in patients experiencing fatigue (NCI-Common Toxicity Criteria Grade)” value in experiment [1] (all patients experiencing fatigue, mild and moderate) is 1-2 Grade. For the same compound, the “Effect on incidence and severity of fatigue (in words)” value in experiment [1] (paclitaxel plus reparixin compared with paclitaxel and placebo) is “beneficial effect on incidence and severity of cancer-related fatigue; also recorded: significantly lower incidence and severity of treatment-related fatigue”.

`C[C@@H](C(=O)NS(C)(=O)=O)c1ccc(OS(=O)(=O)C(F)(F)F)cc1` [ladarixin]: in experiment [4] (5 dogs, ladarixin with doxorubicin and oclacitinib), the “total QoL score” value is “over 100”. Moreover, in experiment [4] (setting [7]), the mqol gooddavs was 5 (4×) and 4; the mqol_active is 5 (3×) and 2 and 4; the mqol_depressed is 5 (3×) and 4 (2×); the mqol_drinks is 5 (4×) and 4. In experiment [4] (setting [7]), the mqol_eats was 5 (4×) and 4; the mqol_enjoyslife was 5 (4×) and 4; the mqol_lays is 5 (4×) and 2; the mqol_moves is 5 (4×) and 2. For the same compound, in experiment [4] (setting [7]), the mqol_play is 5 (4×) and 4; the mqol_presence was 5 (4×) and 4; the mqol_sleeps was 4 and 3 and 5 (3×). Also, in experiment [4] (setting [8]), the mqol gooddavs is 4 and 5 (4×); the mqol_active was found to be 5; the mqol_depressed is 4 and 5 (4×); the mqol_drinks amounted to 5. Also, in experiment [4] (setting [8]), the mqol_eats is 5 (4×) and 3; the mqol_enjoyslife is 5; the mqol_lays is 4 and 5 (4×); the mqol_moves is 4 and 5 (4×). In experiment [4] (setting [8]), the mqol_play was 5 (4×) and 4; the mqol_presence was determined as 5; the mqol_sleeps is 4 (2×) and 2 and 1 and 5. In experiment [4] (setting [9]), the mqol gooddavs amounted to 5; the mqol_active is 5 (3×) and 4 and 3; the mqol_depressed was 5 (4×) and 4; the mqol_drinks is given as 5. Moreover, in experiment [4] (setting [9]), the mqol_eats is given as 5; the mqol_enjoyslife is reported as 5; the mqol_lays was 5 (4×) and 4; the mqol_moves is 5 (2×) and 4 (3×). In addition, in experiment [4] (setting [9]), the mqol_play amounted to 5; the mqol_presence is 5 (4×) and 4; the mqol_sleeps is 5 (2×) and 4 and 3 (2×). In experiment [4] (setting [10]), the mqol gooddavs is 5 (2×) and 4; the mqol_active was 5 (2×) and 2; the mqol_depressed was 5 (2×) and 4; the mqol_drinks was 5 (2×) and 4. For the same compound, in experiment [4] (setting [10]), the mqol_eats was 5 (2×) and 4; the mqol_enjoyslife was 5 (2×) and 4; the mqol_lays is 5 (2×) and 2; the mqol_moves is 4 and 3 and 5. For the same compound, in experiment [4] (setting [10]), the mqol_play was 5 (2×) and 4; the mqol_presence is 5 (2×) and 4; the mqol_sleeps is 5 (2×) and 3. In addition, the “Effect on severity of fatigue associated with doxorubicin treatment (in words)” value in experiment [4] (ladarixin added to doxorubicin and oclacitinib) was “reduced the severity of the known fatigue induced by the treatment with doxorubicin; also recorded: reduced the severity of the known fatigue associated to the treatment”.
